Data set [1] addresses T1, Recombinant human VAP-1 SSAO (Homo sapiens, UniProt Q16853).
T1 construct: made in house; host or cells: Chinese Hamster Ovary (CHO) cells; clarified NP40 cell lysate used directly
T1 sequence (Q16853 1-763): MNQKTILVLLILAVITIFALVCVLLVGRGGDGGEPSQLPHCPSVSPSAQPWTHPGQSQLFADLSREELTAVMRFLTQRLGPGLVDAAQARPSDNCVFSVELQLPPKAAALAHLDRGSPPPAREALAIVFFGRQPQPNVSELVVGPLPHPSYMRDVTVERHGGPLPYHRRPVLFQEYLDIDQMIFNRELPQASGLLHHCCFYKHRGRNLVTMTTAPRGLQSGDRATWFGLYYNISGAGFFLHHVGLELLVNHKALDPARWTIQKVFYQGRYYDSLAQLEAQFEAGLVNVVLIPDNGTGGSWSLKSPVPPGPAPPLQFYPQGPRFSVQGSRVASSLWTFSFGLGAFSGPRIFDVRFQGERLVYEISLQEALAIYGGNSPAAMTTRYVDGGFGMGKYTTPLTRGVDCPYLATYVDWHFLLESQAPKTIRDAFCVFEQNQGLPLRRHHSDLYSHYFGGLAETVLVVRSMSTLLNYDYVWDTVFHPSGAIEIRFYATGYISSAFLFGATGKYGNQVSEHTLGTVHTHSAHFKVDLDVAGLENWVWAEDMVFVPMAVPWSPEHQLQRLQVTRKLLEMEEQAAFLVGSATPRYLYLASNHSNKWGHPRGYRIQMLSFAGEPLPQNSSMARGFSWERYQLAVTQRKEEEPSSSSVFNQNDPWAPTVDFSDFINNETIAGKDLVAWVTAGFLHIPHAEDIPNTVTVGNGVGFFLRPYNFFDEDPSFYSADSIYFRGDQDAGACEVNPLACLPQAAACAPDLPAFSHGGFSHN
Nature of the data set: In vitro inhibition of VAP-1 SSAO activity (coupled colorimetric method, benzylamine substrate). The data set is classed as biochemical. The following applies: CHO cell lysate, 1 mM benzylamine, read-out: VAP-1 SSAO Inhibitory activity IC50. The method, then:
VAP-1 SSAO activity was measured using the coupled colorimetric method essentially as described for monoamine oxidase and related enzymes (Holt, A., et al., Anal. Biochem. 244:384-392 (1997)). Recombinant human VAP-1 SSAO expressed in Chinese Hamster Ovary (CHO) cells was used as a source of VAP-1 SSAO for activity measurements. Native CHO cells have negligible SSAO activity. These cells and their culture have previously been described (Smith, D. J., et al., J. Exp. Med. 188:17-27 (1998)). A cell lysate was prepared by suspending approximately 3.6×10^8 cells in 25 ml lysis buffer (150 mM NaCl, 10 mM Tris-Base pH 7.2, 1.5 mM MgCl2, 1% NP40) and incubating at 4° C. overnight on a rotating table. The lysate was clarified by centrifugation at 18 000 g for 5 min at room temperature and the supernatant used directly in the assay. The VAP-1 SSAO assay was performed in 96 well microtitre plates as follows. To each well was added a predetermined amount of inhibitor if required. The amount of inhibitor varied in each assay but was generally at a final concentration of between 1 nM and 50 μM. Controls lacked inhibitor. The inhibitor was in a total volume of 20 μl in water. The following reagents were then added. 0.2 M potassium phosphate buffer pH 7.6 to a total reaction volume of 200 μl, 50 μl of freshly made chromogenic solution containing 1 mM vanillic acid, 500 μM 4-aminoantipyrine and 8 U/ml horseradish peroxidase and an amount of CHO cell lysate containing VAP-1 SSAO that caused a change of 0.6 A490 per h. This was within the linear response range of the assay. The plates were incubated for 30 min at 37° C. and the background absorbance measured at 490 nm using a Wallac Victor II multilabel counter. To initiate the enzyme reaction 20 μl 10 mM benzylamine (final concentration=1 mM) was added and the plate incubated for 1 h at 37° C. The increase in absorbance, reflecting VAP-1 SSAO activity, was measured at 490 nm. Inhibition was presented as percent inhibition compared to control after correcting for background absorbance and IC50 values calculated using GraphPad Prism.

For another data set, the system named is Total MAO. Briefly: Total rat MAO activity (rat liver mitochondrial preparation, tyramine substrate). The data set is classed as biochemical. As to the method: Rat MAO was prepared from rat liver by rinsing the 1 g liver sample several times in 14 ml KCl-EDTA-solution to remove all blood. Then 1 g liver sample was homogenized in 4 ml ice-cold potassium phosphate buffer (0.1 M, pH 7.4) with an Ultra-Turrax homogenizer (setting 11 000 rpm, 4×10 s). After centrifugation at 500 g for 10 min at 4° C. the supernatant was carefully withdrawn and was centrifuged at 12 300 g for 15 min at 4° C. The supernatant was discharged and sedimented mitochondria were resuspended in 4 ml fresh phosphate buffer and centrifuged as previously. The mitochondria were suspended in 4 ml phosphate buffer and homogenized with an Ultra-Turrax homogenizer (setting 11 000 rpm, 2×10 s). Mitochondrial preparate was aliquoted and stored at −70° C. Total MAO activity was measured in a similar way as for VAP-1 SSAO except that SSAO enzyme was replaced by MAO enzyme. To each well was added a predetermined amount of inhibitor if required. The amount of inhibitor varied in each assay but was generally at a final concentration of between 10 nM and 800 μM. Controls lacked inhibitor. The inhibitor was in a total volume of 20 μl in water. The following reagents were then added. 0.2 M potassium phosphate buffer pH 7.6 for a total reaction volume of 200 μl, 50 μl of freshly made chromogenic solution (as above) and 50 μl of MAO preparation (or needed amount of MAO). The plates were incubated for 30 min at 37° C. and the background absorbance measured at 490 nm using a Wallac Victor II multilabel counter. To initiate the enzyme reaction 20 μl of 5 mM tyramine (final concentration 0.5 mM) was added and the plate incubated for 1 h at 37° C. The increase in absorbance, reflecting MAO activity, was measured at 490 nm. Inhibition was presented as percent inhibition compared to control after correcting for background absorbance and IC50 values calculated using GraphPad Prism. Clorgyline and pargyline (inhibitors of MAO-A and -B respectively) at 0.5 μM were added to some wells as positive controls for MAO inhibition.

Consider `O=c1cc(NCCN2CCOCC2)c(-c2nc[nH]n2)nn1-c1ccccc1` [Compound 39], for which the melting point was in the range of 251 to 258 °C. Further, in data set [1], the IC50 is 2000 nM.

As to `C=CCNc1cc(=O)n(-c2ccc(Cl)cc2)nc1-c1nc[nH]n1` [Compound 70], the melting point is 212 to 215 °C. Further, in data set [1], the IC50 came out at 140 nM. The “Total MAO Inhibitory activity (%)” value in the data set with Total MAO (at 50 μM) is 18%.

Regarding `CC(C)Nc1cc(=O)n(-c2ccccc2)nc1-c1nc[nH]n1` [Compound 29, 5-isopropylamino-2-phenyl-6-(1H-1,2,4-triazol-3-yl)-3(2H)-pyridazinone], the melting point fell in the range of 203 to 205 °C. In addition, the IC50 in data set [1] is 270 nM. In addition, the “Total MAO Inhibitory activity (%)” value in the data set with Total MAO (at 100 μM) worked out at 9%.

In the case of `COc1ccc(Oc2cc(=O)n(-c3ccccc3)nc2-c2nc[nH]n2)cc1` [Compound 14], the melting point lay within 253 to 257 °C. Further, in data set [1], the IC50 worked out at 370 nM. In addition, the “Total MAO Inhibitory activity (%)” value with Total MAO (at 100 μM) is 0%.

Turning to `CN1CCC(Nc2cc(=O)n(-c3ccc(Cl)cc3)nc2-c2nc[nH]n2)CC1` [Compound 68], the melting point lay within 227 to 230 °C. In addition, the IC50 in data set [1] stood at 180 nM.

`Cn1cc(-c2nn(-c3ccccc3)c(=O)cc2Oc2ccccc2)cn1` [Compound 17, 6-(1-methyl-1H-pyrazol-4-yl)-5-phenoxy-2-phenylpyridazin-3(2H)-one] came in with a melting point of 195 to 197 °C. Further, the IC50 in data set [1] is 236000 nM. Moreover, the “Total MAO Inhibitory activity (%)” value with Total MAO (at 100 μM) amounted to 22%.

On to `O=c1cc(NC2CCCCC2)c(-c2nc[nH]n2)nn1-c1ccccc1` [Compound 43, 5-cyclohexylamino-2-phenyl-6-(1H-1,2,4-triazol-3-yl)-3(2H)-pyridazinone], for which the 50% inhibitory concentration (IC50) in data set [1] was 78 nM. For the same compound, in the data set on Total MAO (at 100 μM), the “Total MAO Inhibitory activity (%)” value amounted to 5%.

The compound `C#CCCNc1cc(=O)n(-c2ccc(Cl)cc2)nc1-c1nc[nH]n1` [Compound 83] yielded a melting point of 176 to 177 °C. The concentration for half-maximal inhibition (IC50) in data set [1] amounted to 73 nM. In the data set with Total MAO (at 50 μM), the “Total MAO Inhibitory activity (%)” value is listed as 0%.

`C#CCNc1cc(=O)n(-c2ccc(Cl)cc2)nc1-c1nc[nH]n1` [Compound 75]: the melting point was in the range of 252 to 254 °C. Besides, the IC50 in data set [1] was 220 nM. Further, the “Total MAO Inhibitory activity (%)” value with Total MAO (at 50 μM) was 0%.

`CN(C)CCNc1cc(=O)n(-c2ccccc2)nc1-c1nc[nH]n1` [Compound 13] returned a melting point of 211 to 214 °C. In data set [1], the IC50 amounted to 15000 nM.

For `O=c1cc(Nc2ccc(N3CCOCC3)cc2)c(-c2nc[nH]n2)nn1-c1ccc(Cl)cc1` [Compound 74], the melting point fell in the range of 248 to 250 °C. Moreover, the IC50 in data set [1] came to 100 nM. Further, the “Total MAO Inhibitory activity (%)” value in the data set with Total MAO (at 50 μM) came to 0%.

Compound `O=c1cc(Oc2ccccc2)c(-c2nc[nH]n2)cn1-c1ccccc1` [Compound 34, 4-phenoxy-5-(1H-1,2,4-triazol-3-yl)-1-phenylpyridin-2(1H)-one] gave a melting point of 275 to 276 °C. The IC50 in data set [1] is 1600 nM. Moreover, in the data set on Total MAO (at 100 μM), the “Total MAO Inhibitory activity (%)” value is recorded as 24%.

With `CNc1cc(=O)n(-c2ccccc2)nc1-c1nc[nH]n1` [Compound 28], the melting point is 245 to 247 °C. Further, in data set [1], the IC50 came to 3600 nM. Moreover, the “Total MAO Inhibitory activity (%)” value with Total MAO (at 100 μM) came out at 10%.

Turning to `CN1CCN(c2ccc(Nc3cc(=O)n(-c4ccc(Cl)cc4)nc3-c3nc[nH]n3)cc2)CC1` [Compound 63], the melting point was 227 to 229 °C. Moreover, in data set [1], the IC50 came out at 70 nM.

Compound `COc1cccc(-n2nc(-c3nc[nH]n3)c(Oc3ccccc3)cc2=O)c1` [Compound 27] gave a melting point of 253 to 254 °C. The IC50 in data set [1] was 2000 nM. In the data set with Total MAO (at 100 μM), the “Total MAO Inhibitory activity (%)” value is given as 3%.

Regarding `O=c1cc(Oc2ccccc2)c(-c2ccc(F)cc2)nn1-c1ccccc1` [Compound 22], the melting point was 146 to 148 °C. Further, the IC50 in data set [1] is roughly 60000 nM. Besides, the “Total MAO Inhibitory activity (%)” value with Total MAO (at 100 μM) was 0%.

`CCOc1cc(=O)n(-c2ccccc2)nc1-c1nc[nH]n1` [Compound 36] yielded a melting point of 195 to 197 °C. Also, in data set [1], the IC50 came to 16000 nM. Moreover, the “Total MAO Inhibitory activity (%)” value in the data set on Total MAO (at 100 μM) was determined as 3%.

`O=c1cc(NCC2CC2)c(-c2nc[nH]n2)nn1-c1ccc(Cl)cc1` [Compound 71] had a melting point of 255 to 257 °C. Also, the 50% inhibitory concentration (IC50) in data set [1] stood at 170 nM. In the data set with Total MAO (at 50 μM), the “Total MAO Inhibitory activity (%)” value turned out to be 16%.

The compound `O=c1cc(Oc2ccccc2)c(-c2nc[nH]n2)nn1-c1ccc(Cl)cc1` [Compound 25] gave a melting point of 246 to 247 °C. For the same compound, the IC50 in data set [1] was found to be 350 nM. In the data set with Total MAO (at 100 μM), the “Total MAO Inhibitory activity (%)” value was 0%.

As to `O=c1cc(Nc2ccc3c(c2)OCO3)c(-c2nc[nH]n2)nn1-c1ccc(Cl)cc1` [Compound 59, 2-(4-chlorophenyl)-5-[(3,4-methylenedioxyphenyl)amino]-6-(1H-1,2,4-triazol-3-yl)-3(2H)-pyridazinone], the melting point is 270 to 273 °C. For the same compound, the IC50 in data set [1] stood at 80 nM. For the same compound, the “Total MAO Inhibitory activity (%)” value in the data set on Total MAO (at 250 μM) is 14%.

With `CN1CCN(c2ccc(Nc3cc(=O)n(-c4ccc(Cl)cc4)cc3-c3nc[nH]n3)cc2)CC1` [Compound 81], the melting point lay in the range of 218 to 221 °C. Moreover, in data set [1], the IC50 turned out to be 31 nM.

Compound `NCCCNc1cc(=O)n(-c2ccc(Cl)cc2)nc1-c1nc[nH]n1` [Compound 78] had a melting point of 285 to 290 °C. Besides, the IC50 in data set [1] was 800 nM.

Compound `O=c1cc(Oc2ccccc2)c(-c2nc[nH]n2)nn1-c1cccc(F)c1` [Compound 46] displayed a melting point of 262 to 264 °C. The IC50 in data set [1] was found to be 340 nM. In the data set on Total MAO (at 100 μM), the “Total MAO Inhibitory activity (%)” value is given as 9%.

The compound `O=c1cc(Sc2ccccc2)c(-c2nc[nH]n2)nn1-c1ccccc1` [Compound 16, 2-phenyl-5-phenylsulfanyl-6-(1H-1,2,4-triazol-3-yl)-3(2H)-pyridazinone] returned a melting point of 245 to 250 °C. In addition, in data set [1], the IC50 worked out at 640 nM. Moreover, the “Total MAO Inhibitory activity (%)” value in the data set on Total MAO (at 100 μM) came out at 24%.

Broadly, the IC50 is the midpoint of a concentration-inhibition curve. One may read the melting point as the temperature, or range, at which the solid turns liquid.

Values taken from patent US9371290B2, “Pyridazinone compounds” (BIOTIE THERAPIES CORPORATION, priority 2011, dated 2016).
